Results as given in US20230192657A1, “1,2,4-TRIAZOLINONE CB1 INHIBITORS” (Goldfinch Bio, Inc., priority 2020, published 2023).

Target: CB1 receptor (Homo sapiens, UniProt P21554)
Assay: CB1 cAMP Antagonist Assay (LANCE Ultra cAMP kit)
Type: cell-based
Settings: Flp-In CHO cells stably expressing the CB1 receptor; forskolin and CP55940 agonist at EC90; cAMP FRET readout
Description: CB1 cAMP Antagonist Assay
LANCE Ultra cAMP kit (Perkin Elmer) was used to quantitate the amount of 3′,5′-cyclic adenosine monophosphate (cAMP) produced in Flp-In CHO (Invitrogen) cells stably expressing the CB1 receptor.
Forskolin was initially titrated to determine the response of the cells. The EC90 of forskolin was used for compound testing. CP55940 was titrated and used with EC90 of forskolin to determine the level of agonist stimulation. EC90 of the agonist was used for subsequent compound testing.
Forskolin (Sigma), CP55940 (Cayman Chemicals), and AM251 (MCE) were diluted in 100% DMSO, starting at 100 mM, 1 mM, and 1 mM respectively, in 3-fold serial dilutions. Test compounds were diluted in 100% DMSO starting from 10 mM, 3-fold dilutions. The cAMP assay buffer contains 1x Hank’s Buffered Saline Solution with Ca^2+ and Mg^2+ (Invitrogen), 5.3 mM HEPES (Invitrogen), 0.05% BSA, 0.5 mM IBMX (Sigma).
For all assays, cells were harvested, counted, and diluted in cAMP assay buffer to 1× 10^5 cells/mL. Only cells with viability >85% were used for the assay. Cells were seeded at 1000 cells/well in 384-well plates and 10 nL/well AM251 or test compound was added and incubated at 37° C. for 10 min. […] To detect the amount of cAMP produced, 5 µL of a 100x diluted stock of Eu-cAMP tracer and 5 µL of 200x diluted stock of Ulight-anti-cAMP were added to each well, and the plate incubated at 25° C. for 15 min. The FRET signal was read using an EnVision microplate reader (λex=320 nm, λem=615 nm and 665 nm).
The IC50 is determined by fitting the percentage of inhibition as a function of compound concentrations with the Hill equation, using a 4-parameter fit in either XLfit or GraphPad Prism.

Chain of CB1 receptor (P21554 whole entry): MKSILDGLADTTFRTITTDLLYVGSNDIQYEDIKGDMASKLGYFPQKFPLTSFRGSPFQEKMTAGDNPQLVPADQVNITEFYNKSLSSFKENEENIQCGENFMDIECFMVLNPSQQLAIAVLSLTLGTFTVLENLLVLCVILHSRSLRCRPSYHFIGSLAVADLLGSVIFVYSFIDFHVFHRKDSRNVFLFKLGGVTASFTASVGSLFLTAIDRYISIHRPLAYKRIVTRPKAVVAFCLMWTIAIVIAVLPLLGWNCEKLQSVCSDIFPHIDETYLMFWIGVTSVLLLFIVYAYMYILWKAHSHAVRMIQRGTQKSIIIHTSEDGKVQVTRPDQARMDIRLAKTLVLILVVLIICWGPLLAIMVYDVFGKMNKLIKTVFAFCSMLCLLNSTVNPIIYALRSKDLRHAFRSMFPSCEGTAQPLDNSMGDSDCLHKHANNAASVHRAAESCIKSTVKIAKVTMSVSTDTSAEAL

For `Cn1c(N2C[C@H](c3ccccc3)C(c3ccc(Cl)cc3)=N2)nn(Cc2ccc(CN3CCOCC3)cc2)c1=O` [Compound 136, 3-[(4S)-3-(4-chlorophenyl)-4-phenyl-4,5-dihydro-1H-pyrazol-1-yl]-4-methyl-1-([4-[(morpholin-4-yl)methyl]phenyl]methyl)-4,5-dihydro-1H-1,2,4-triazol-5-one], the IC50 was 0.1 to 1 µM.

`O=C(O)CCn1c(N2C[C@@]3(CCc4ccccc43)C(c3ccc(Cl)cc3)=N2)nn(-c2ccc(Cl)cc2)c1=O` [Compound 130] gave an IC50 of over 5 µM.

Molecule `C[C@H](C(N)=O)n1c(N2C[C@H](c3ccccc3)C(c3ccc(Cl)cc3)=N2)nn(Cc2ccc(Cl)cn2)c1=O` [Compound 205] has an IC50 of under 0.1 µM.

Work on `C[C@@H](C(N)=O)n1c(N2C[C@@H](c3ccccc3)C(c3ccc(Cl)cc3)=N2)nn(Cc2ccc(Cl)cn2)c1=O` [Compound 201] yielded an IC50 of 0.1 to 1 µM.

`O=c1n(-c2ccc(Cl)cc2)nc(N2C[C@@]3(CCc4ccccc43)C(c3ccc(Cl)cc3)=N2)n1CCO` [Compound 112] gave an IC50 of over 5 µM.

`Cn1c(N2C[C@@]3(CCc4ccccc43)C(c3ccc(Cl)cc3)=N2)nn(Cc2ccc(Cl)cc2)c1=O` [Compound 113] gave an IC50 of 1 to 5 µM.

Work on `Cn1c(N2C[C@@H](c3ccccc3)C(c3ccc(Cl)cc3)=N2)n[nH]c1=O` [Compound 181] yielded an IC50 of over 5 µM.

In the case of `COCCn1c(N2CC3(CCc4ccccc43)C(c3ccc(Cl)cc3)=N2)nn(Cc2ccc(Cl)cc2)c1=O` (stereo in doubt) [Compound 120, 3-[(1R)-3-(4-chlorophenyl)-1,2,3,5-tetrahydrospiro[indene-1,4-pyrazol]-1-yl]-1-[(4-chlorophenyl)methyl]-4-(2-methoxyethyl)-4,5-dihydro-1H-1,2,4-triazol-5-one], the IC50 is reported as 1 to 5 µM.

In the case of `Cn1c(N2CC(c3ccccc3)C(c3ccc(Cl)cc3)=N2)nn(Cc2cccc(C(N)=O)c2)c1=O` (stereo not drawn) [Compound 182], the IC50 is reported as 0.1 to 1 µM.

`Cn1c(N2C[C@H](c3ccccc3)C(c3ccc(Cl)cc3)=N2)nn(CCc2ccc(C(N)=O)cc2)c1=O` [Compound 202, 4-(2-[3-[(4S)-3-(4-chlorophenyl)-4-phenyl-4,5-dihydropyrazol-1-yl]-4-methyl-5-oxo-1,2,4-triazol-1-yl]ethyl)benzamide] was tested, and the IC50 was 0.1 to 1 µM.

`NC(=O)Cn1c(N2C[C@@]3(CCc4ccccc43)C(c3ccc(Cl)cc3)=N2)nn(CC2CCCCC2)c1=O` [Compound 147, 2-[3-[(1S)-3-(4-chlorophenyl)-1,2,3,5-tetrahydrospiro[indene-1,4-pyrazol]-1-y1]-1-(cyclohexylmethyl)-5-oxo-4,5-dihydro-1H-1,2,4-triazol-4-yl]acetamide] was tested, and the IC50 was 1 to 5 µM.

With `COCCn1c(N2CC3(CCc4ccccc43)C(c3ccc(Cl)cc3)=N2)nn(Cc2ccc(Cl)cc2)c1=O` (stereo in doubt) [Compound 123, 3-[(1S)-3-(4-chlorophenyl)-1,2,3,5-tetrahydrospiro[indene-1,4-pyrazol]-1-yl]-1-[(4-chlorophenyl)methyl]-4-(2-methoxyethyl)-4,5-dihydro-1H-1,2,4-triazol-5-one] the IC50 was 0.1 to 1 µM.

Work on `Cc1ccc(Cn2nc(N3C[C@H](c4ccccc4)C(c4ccc(Cl)cc4)=N3)n(C)c2=O)cc1` [Compound 163] yielded an IC50 of under 0.1 µM.

Work on `COCCn1c(N2C[C@]3(CCc4ccccc43)C(c3ccc(Cl)cc3)=N2)nn(-c2ccc(Cl)cc2)c1=O` [Compound 110] yielded an IC50 of over 5 µM.

`O=c1n(Cc2ccc(Cl)cc2)nc(N2CC3(CCc4ccccc43)C(c3ccc(Cl)cc3)=N2)n1CCO` (stereo in doubt) [Compound 121, 3-[(1S)-3-(4-chlorophenyl)-1,2,3,5-tetrahydrospiro[indene-1,4-pyrazol]-1-yl]-1-[(4-chlorophenyl)methyl]-4-(2-hydroxyethyl)-4,5-dihydro-1H-1,2,4-triazol-5-one] was tested, and the IC50 was 0.1 to 1 µM.

With `COCCn1c(N2C[C@@]3(CCc4ccccc43)C(c3ccc(Cl)cc3)=N2)nn(-c2ccc(Cl)cc2)c1=O` [Compound 117] the IC50 was over 5 µM.

In the case of `Cc1ccc(Cn2nc(N3C[C@@H](c4ccccc4)C(c4ccc(Cl)cc4)=N3)n(C)c2=O)cc1` [Compound 161], the IC50 is reported as 1 to 5 µM.

Molecule `O=C(O)CCn1c(N2C[C@]3(CCc4ccccc43)C(c3ccc(Cl)cc3)=N2)nn(-c2ccc(Cl)cc2)c1=O` [Compound 129] has an IC50 of over 5 µM.
